Experimental data as given in article PMC4965013, “Open Source Drug Discovery with the Malaria Box Compound Collection for Neglected Diseases and Beyond” (PLoS Pathogens, 2016).

Tests used:
[1] = tested on: P. falciparum 3D7 trophozoites; experiment: Metabolomic fingerprint profiling LC-MS; format: cell-based, Plasmodium falciparum; set-up: UDP-D-glucose / ADP-D-glucose: unit not given here
P. falciparum = experiment: EC50 listed in S2 Table Metabolomics (used to set the concentration tested); format: cell-based; settings: Plasmodium falciparum; EC50 used for Factor_XEC50 in metabolomics; read-out: EC50_nM
[2] = metabolite level change after treatment

- EC50 (P. falciparum): 161 nM
SMILES: CC(C)(C)c1ccc(O)c(CNC2CCCCC2)c1 [MMV665785]
- Acetyllysine ([1]; S2 Table Metabolomics, metabolite Acetyllysine): -3.15
- N-acetyl-L-ornithine ([1]; S2 Table Metabolomics, metabolite N-acetyl-L-ornithine): -2.311
- N-carbamoyl-L-aspartate ([1]; S2 Table Metabolomics, metabolite N-carbamoyl-L-aspartate): -1.546
- NADPH ([1]; S2 Table Metabolomics, metabolite NADPH): 0.984
- dAMP ([1]; S2 Table Metabolomics, metabolite dAMP): -0.2403
- dCMP ([1]; S2 Table Metabolomics, metabolite dCMP): -0.2349
- dTDP ([1]; S2 Table Metabolomics, metabolite dTDP): -0.5512
- dTMP ([1]; S2 Table Metabolomics, metabolite dTMP): -0.26
- dTTP ([1]; S2 Table Metabolomics, metabolite dTTP): 0.1164
- dihydroorotate ([1]; S2 Table Metabolomics, metabolite dihydroorotate): -0.9762
- orotate ([1]; S2 Table Metabolomics, metabolite orotate): -1.456
- DLH ([1]; S2 Table Metabolomics, peptide DLH): -3.579
- DLS/SDL/SID ([1]; S2 Table Metabolomics, peptide DLS/SDL/SID): -3.002
- PD ([1]; S2 Table Metabolomics, peptide PD): -3.491
- PEE ([1]; S2 Table Metabolomics, peptide PEE): -3.582
- PVNF ([1]; S2 Table Metabolomics, peptide PVNF): -4.043
- 3-phosphoglycerate ([1]; metabolite 3-phosphoglycerate, S2 Table Metabolomics): 0.5402
- ADP-D-glucose ([1]; metabolite ADP-D-glucose, S2 Table Metabolomics): -0.1351
- ATP ([1]; metabolite ATP, S2 Table Metabolomics): 0.1038
- CDP ([1]; metabolite CDP, S2 Table Metabolomics, change in metabolite level after compound treatment): 0.1776
- D-sedoheptulose-1/7-phosphate ([1]; metabolite D-sedoheptulose-1/7-phosphate, S2 Table Metabolomics, change in metabolite level after compound treatment): 0.09578
- FAD ([1]; metabolite FAD, S2 Table Metabolomics): 0.3792
- GMP ([1]; metabolite GMP, S2 Table Metabolomics, change in metabolite level after compound treatment): -0.7077
- NAD+ ([1]; metabolite NAD+, S2 Table Metabolomics): 1.206
- NADP+ ([1]; metabolite NADP+, S2 Table Metabolomics): 0.3365
- Octoluse Bisphosphate ([1]; metabolite Octoluse Bisphosphate, S2 Table Metabolomics, change in metabolite level after compound treatment): 0.02588
- Pyroglutamic acid ([1]; metabolite Pyroglutamic acid, S2 Table Metabolomics): -0.2254
- UDP-D-glucose ([1]; metabolite UDP-D-glucose, S2 Table Metabolomics): 0.3073
- UDP-D-glucuronate ([1]; metabolite UDP-D-glucuronate, S2 Table Metabolomics): 0.153
- UDP-N-acetyl-glucosamine ([1]; metabolite UDP-N-acetyl-glucosamine, S2 Table Metabolomics): 0.3019
- UDP ([1]; metabolite UDP, S2 Table Metabolomics, change in metabolite level after compound treatment): -0.1861
- UMP ([1]; metabolite UMP, S2 Table Metabolomics, change in metabolite level after compound treatment): -0.1897
- UTP ([1]; metabolite UTP, S2 Table Metabolomics, change in metabolite level after compound treatment): -0.0004267
- a-ketoglutarate ([1]; metabolite a-ketoglutarate, S2 Table Metabolomics): -1.327
- citrate/isocitrate ([1]; metabolite citrate/isocitrate, S2 Table Metabolomics, change in metabolite level after compound treatment): -0.9862
- cytidine ([1]; metabolite cytidine, S2 Table Metabolomics): 0.6078
- dATP ([1]; metabolite dATP, S2 Table Metabolomics): 0.1738
- dGMP/AMP ([1]; metabolite dGMP/AMP, S2 Table Metabolomics, change in metabolite level after compound treatment): -0.2591
- fumarate ([1]; metabolite fumarate, S2 Table Metabolomics, change in metabolite level after compound treatment): -2.071
- glucose-1/6-phosphate ([1]; metabolite glucose-1/6-phosphate, S2 Table Metabolomics, change in metabolite level after compound treatment): 0.2752
- glycerate ([1]; metabolite glycerate, S2 Table Metabolomics, change in metabolite level after compound treatment): -0.524
- guanine ([1]; metabolite guanine, S2 Table Metabolomics, change in metabolite level after compound treatment): -0.6198
- guanosine ([1]; metabolite guanosine, S2 Table Metabolomics, change in metabolite level after compound treatment): -0.8871
- hypoxanthine ([1]; metabolite hypoxanthine, S2 Table Metabolomics): -0.2777
- indole ([1]; metabolite indole, S2 Table Metabolomics): -0.4001
- inosine ([1]; metabolite inosine, S2 Table Metabolomics, change in metabolite level after compound treatment): -0.2517
- 2_3-Diphosphoglyceric acid [1, 2]: 0.5476
- 4-phosphopantothenate [1, 2]: -0.1524
- 6-phospho-D-gluconate [1, 2]: 0.3686
- FMN [1, 2]: 0.4685
- IMP [1, 2]: 0.07164
- Pyrophosphate [1, 2]: 0.2456
- Sedoheptoluse bisphosphate [1, 2]: 0.06348
- cyclic-AMP [1, 2]: -0.9854
- glutathione disulfide [1, 2]: -0.1571
- lactate [1, 2]: -0.3018
- myo-inositol [1, 2]: 0.3826
- nicotinate ([1]; metabolite nicotinate, S2 Table Metabolomics): -0.1953
- ornithine ([1]; metabolite ornithine, S2 Table Metabolomics): -0.1957
- phosphoenolpyruvate ([1]; metabolite phosphoenolpyruvate, S2 Table Metabolomics): 0.4685
- pyruvate ([1]; metabolite pyruvate, S2 Table Metabolomics, change in metabolite level after compound treatment): -0.3246
- ribose-phosphate ([1]; metabolite ribose-phosphate, S2 Table Metabolomics): -0.2844
- sarcosine/alanine ([1]; metabolite sarcosine/alanine, S2 Table Metabolomics, change in metabolite level after compound treatment): -1.431
- sn-glycerol-3-phosphate ([1]; metabolite sn-glycerol-3-phosphate, S2 Table Metabolomics): -0.03786
- succinate/methylmalonic acid ([1]; metabolite succinate/methylmalonic acid, S2 Table Metabolomics, change in metabolite level after compound treatment): -0.9733
- uridine ([1]; metabolite uridine, S2 Table Metabolomics, change in metabolite level after compound treatment): -0.6886
- xanthosine ([1]; metabolite xanthosine, S2 Table Metabolomics, change in metabolite level after compound treatment): -1.575
